Test results as given in paper PMC5750238 (2018).

Assays:
[1] = test system: 2H-AE construct (RNA, other) GGAAUUCAGGAGCUCGGGAGCGUCCACUGCUCCUGAGCGCUCCAGUGGACGGAGCCCUGGUGAAGCCUCCACGCCAGGUCCUGGAUUCCGCAUGUAUCGAGGACUGAAGGAGGCACGGUCCCACGGGCUCCGAGACGUGGAGUCCGUGUCCGCACGUCUCGCGGAUCGAUGCAUGC; experiment: fluorescence activation; conditions: 125 mM KCl, 1 mM MgCl2; 1x TB assembly buffer; no fluorescence activation
[2] = test system: Mango construct (RNA, aptamer) GGGAGAUCGUCCUAAGCGCUUUCGAGCGUUUAGCCUGGGUCGCGAAGGGACGGUGCGGAGAGGAGAGCGACUCAGGGAUGGUGAAGCCUCCACGCCAUCGACGGUCUCCCGAUACUCAUCGCGACUGAAGGAGGCACGGUCGGCAUUGUACUUCGGUACGAUGCGCAAGCGACUUCGGUCGUUUGCCGAUGGGUAUC; experiment: fluorescence activation; conditions: 125 mM KCl, 1 mM MgCl2; 1x TB assembly buffer; EC50 given as N/A; titration to 2 µM
[3] = test system: Broccoli construct (RNA, aptamer) GGGAGAUGCUCCCAGUUACAUUCGUGUAGCUGGCCGUGCGAGACGGUCGGGUCCAUAGCUAAUUCGUUAGUUAUGUCGAGUAGAGUGUGGGCUCGUACGGGCUGGUGAAGCCUCCACGCCAGCGAGCGUCUCCCGCAUGGCAACGCGACUGAAGGAGGCACGGUCGGCCAUCGGUUUCGACCGGUGGCGGUAGAGCCUUCGGGCUUUACCCGUUGUCAUGC; experiment: fluorescence titration of RNA with fluorophore; conditions: 125 mM KCl, 1 mM MgCl2; 1x TB assembly buffer; 20 nM RNA; fluorophore 1 nM to 2 µM; apparent
[4] = test system: Spinach construct (RNA, aptamer) GGGAGAUGCUCCCAGUUACAUUCGUGUAGCUGGCCGUGCGGUAAGGACGGGUCCCUAGCUAAUUCGUUAGUUAGGUUGAGUAGAGUGUGAGACCGUACGGGCUGGUGAAGCCUCCACGCCAGCGAGCGUCUCCCGCAUGGCAACGCGACUGAAGGAGGCACGGUCGGCCAUCGGUUUCGACCGGUGGCGGUAGAGCCUUCGGGCUUUACCCGUUGUCAUGC; experiment: fluorescence titration of RNA with fluorophore; conditions: 125 mM KCl, 1 mM MgCl2, 1x TB assembly buffer, 20 nM RNA, apparent
[5] = test system: Mango construct (RNA, aptamer) GGGAGAUCGUCCUAAGCGCUUUCGAGCGUUUAGCCUGGGUCGCGAAGGGACGGUGCGGAGAGGAGAGCGACUCAGGGAUGGUGAAGCCUCCACGCCAUCGACGGUCUCCCGAUACUCAUCGCGACUGAAGGAGGCACGGUCGGCAUUGUACUUCGGUACGAUGCGCAAGCGACUUCGGUCGUUUGCCGAUGGGUAUC; experiment: fluorescence titration of RNA with fluorophore; conditions: 125 mM KCl, 1 mM MgCl2; 1x TB assembly buffer; 20 nM RNA; fluorophore 1 nM to 2 µM; apparent

SMILES	binding [1]	binding [2]	EC50 [3]	EC50 ([4]; fluorophore 1 nM to 2 µM)	EC50 [5]	EC50 ([4]; fluorophore 1 nM to 2 µM (value above range))
CC1=N/C(=C\c2cc(F)c(O)c(F)c2)C(=O)N1CC(F)(F)F	no	no	598.9 nM	337.5 nM	–	–
CN1C=CC(=CC=Cc2oc3ccccc3[n+]2CC(=O)NCCOCCOCCOCCNC(=O)CCCC[C@@H]2SC[C@@H]3NC(=O)N[C@@H]32)c2ccccc21	–	–	1700 nM	–	25.6 nM	3920 nM
